Test results taken from paper PMC12057341, “In vitro pharmacokinetic/pharmacodynamic modeling of the effect of mucin on polymyxin B activity against Acinetobacter baumannii” (Antimicrobial Agents and Chemotherapy, 2025).
Where a SMILES comes first, the peptide text is derived from it. Bridges are numbered along the chain shown (N, C = ends). [ ]: non-standard residue; d: D form. The star is where a group is joined. X1 = CC[C@H](C)CCCCC(=O)*; Dab = NCC[C@H](N)C(=O)O

Key:
[1] = test system: Acinetobacter baumannii AB121-D0; assay: MIC at the end (T30h) of TK experiments after regrowth, AB121-D0; assay type: cell-based
Method: (§1) PMB MICs of both A. baumannii strains were determined in commercial CAMHB (BioMérieux, Marcy-l’Etoile, France) according to the European Committee on Antimicrobial Susceptibility Testing and Clinical and Laboratory Standards Institute (CLSI) recommendations ([33], [34]). PMB MICs of the two A. baumannii isolates were also determined at least in duplicate in CAMHB supplemented with 1% of mucin.
(§2) Samples were centrifuged (8 minutes at 8,000 rpm); then, the supernates were removed, and the pellets were stored at −80°C in CAMHB-glycerol 20%. A minimum bacterial density of ~10^5 CFU/mL in samples collected at the end of TK experiments was required for MIC susceptibility testing and sequencing.
(§3) Prior to MIC testing, the isolates were streaked onto a drug-free Mueller-Hinton agar plate and incubated for 24 h.

[2] = test system: Acinetobacter baumannii AB122-D12; assay: MIC at the end (T30h) of TK experiments after regrowth, AB122-D12; assay type: cell-based
Method: as §1, §2, §3

[3] = test system: mucin from the porcine stomach; assay: PMB binding to mucin by ultracentrifugation in CAMHB with 1% mucin; assay type: in vitro ADME; design: Unbound conc.: unit not given here; conditions: for Unbound conc. / fu (95% CI): simulated with equation 1, autoclaved mucin parameters
Method: Mucin from the porcine stomach was obtained from Sigma-Aldrich (Merck KGaA, Saint-Quentin Fallavier, France) and solubilized in NaCl 0.9% to obtain a solution at 20% (pH adjusted to 7). The solution was autoclaved at 110°C for 15 minutes.
PMB solutions at concentrations ranging from 0.5 to 10,000 mg/L in CAMHB with 1% mucin were incubated for 1 h at 35°C, then ultracentrifuged at ~290 000 g for 5 h at room temperature (Beckman Optima LE-80K, rotor: Beckman Coulter 70.1 Ti), according to a method previously described ([35]). Unbound PMB concentrations in the supernates were determined by LC-MS/MS (method adapted from a previous publication ([36]) and detailed in Supplemental material) and used to determine the unbound fraction (fu) of PMB. Potential PMB sedimentation ([37]) during experimentation was determined from PMB solutions prepared in mucin-free CAMHB and subjected to the same ultracentrifugation conditions as previously described, and then used to correct for unbound PMB concentrations.
The same procedure was performed with a nonautoclaved mucin solution. Experiments were done in triplicate.
The relationship between fu and PMB total concentrations was modeled according to a sigmoidal Emax function (equation 1):
(1) fu=E0+ Imax × C^ε/IC50ε+ C^ε,
where E0 represents the minimum fu, Imax the maximum increase in fu, IC50 (mg/L) corresponds to PMB total concentration needed to reach 50% of Imax, C (mg/L) to the PMB total concentration, and ε to the Hill coefficient.
Parameter estimation was performed using nonlinear regression with iteratively reweighted least squares (R, version 4.1.3 – Package: robustbase, version 0.99–0). Two sets of parameters were estimated, one for the data generated with autoclaved mucin, another for the data generated without autoclave. The two sets of parameters were compared using ANOVA testing.

[4] = with and without mucin together
[5] = equation 1 fit, all data pooled, value (variance) in Table 1, CAMHB + 1% mucin, ultracentrifugation, LC-MS/MS, triplicate
[6] = equation 1 fit, autoclaved mucin data
[7] = equation 1 fit, non-autoclaved mucin data
[8] = total conc. 0.5, CAMHB + 1% mucin
[9] = total conc. 1, CAMHB + 1% mucin
[10] = total conc. 2, CAMHB + 1% mucin
[11] = total conc. 4, CAMHB + 1% mucin
[12] = total conc. 8, CAMHB + 1% mucin
[13] = total conc. 10, CAMHB + 1% mucin
[14] = total conc. 50, CAMHB + 1% mucin
[15] = total conc. 100, CAMHB + 1% mucin
[16] = total conc. 500, CAMHB + 1% mucin

Q: For `CC[C@H](C)CCCCC(=O)N[C@@H](CCN)C(=O)N[C@H](C(=O)N[C@@H](CCN)C(=O)N[C@H]1CCNC(=O)[C@H]([C@@H](C)O)NC(=O)[C@H](CCN)NC(=O)[C@H](CCN)NC(=O)[C@H](CC(C)C)NC(=O)[C@@H](Cc2ccccc2)NC(=O)[C@H](CCN)NC1=O)[C@@H](C)O` [PMB, polymyxin B] (X1-[Dab]T[Dab][Dab][Dab][dF]L[Dab][Dab]T; lactam 4-C), which “MIC fold-change vs control of respective replicate” value (shortened to “MIC fold-change vs control”) ([1]; TK in CAMHB + 1% mucin, PMB 0.25 mg/L, replicate 3, pmrB Phe164Ile) is on record?
A: >64

Q: What about the “MIC fold-change vs control” value ([1]; TK in CAMHB + 1% mucin, PMB 0.5 mg/L, replicate 2, pmrB Pro170Leu) of the same compound?
A: >32

Q: What about the “MIC fold-change vs control” value ([1]; TK in CAMHB + 1% mucin, PMB 0.5 mg/L, replicate 3, pmrB Arg231Leu) of the same compound?
A: >64

Q: What about the “MIC fold-change vs control” value ([1]; TK in CAMHB + 1% mucin, PMB 13 mg/L, replicate 4, pmrB Ala227Val) of the same compound?
A: >64

Q: And the “MIC fold-change vs control” value ([1]; TK in CAMHB, PMB 0.5 mg/L, replicate 2, pmrB Arg263His)?
A: >32

Q: What about the “MIC fold-change vs control” value ([1]; TK in CAMHB, PMB 0.5 mg/L, replicate 3, ISAba1 insertion in the promoter of pmrC_3) of the same compound?
A: 32

Q: And the “MIC fold-change vs control” value ([1]; TK in CAMHB, PMB 0.5 mg/L, replicate 4, pmrB Asn353Tyr)?
A: >64

Q: And the “MIC fold-change vs control” value ([1]; TK in CAMHB, PMB 1 mg/L, replicate 4, pmrB 16.25dup)?
A: 32

Q: And the “MIC fold-change vs control” value ([1]; TK in CAMHB, PMB 4 mg/L, replicate 2, pmrB Pro170Leu)?
A: >32

Q: What about the “Regrowth samples at T30h with MIC increased (≥32-fold) compared to control” value ([1]; TK in the absence of mucin, 6 out of 10 samples) of the same compound?
A: 60%

Q: What about the “Regrowth samples at T30h with MIC increased (same order of magnitude, ≥32-fold) compared to control” value ([1]; TK in the presence of mucin, 5 out of 16 samples) of the same compound?
A: 31%

Q: And the “Cases of regrowth associated with an increase in the MIC at T30h” value [1, 4]?
A: 42%

Q: And the “MIC fold-change vs control” value ([2]; TK in CAMHB + 1% mucin, PMB 48 mg/L, replicate 2, lpxA Ser224Pro)?
A: 4

Q: What about the “MIC fold-change vs control” value ([2]; TK in CAMHB + 1% mucin, PMB 135 mg/L, replicate 3, ISAba13 insertion in the promoter of lpxC) of the same compound?
A: 8

Q: What about the “MIC fold-change vs control” value ([2]; TK in CAMHB + 1% mucin, PMB 135 mg/L, replicate 4, ISAba13 insertion in the promoter of lpxC) of the same compound?
A: 4

Q: What about the “MIC fold-change vs control” value ([2]; TK in CAMHB, PMB 16 mg/L, replicate 1, lpxA Arg258Leu) of the same compound?
A: 4

Q: What about the “MIC fold-change vs control” value ([2]; TK in CAMHB, PMB 128 mg/L, replicate 1, lpxA Trp206Arg Thr210Ala) of the same compound?
A: 2

Q: What about the “MIC fold-change vs control” value ([2]; TK in CAMHB, PMB 128 mg/L, replicate 2, lpxA Trp206Arg Thr210Ala) of the same compound?
A: 0.25

Q: And the “Regrowth samples at T30h with ≥fourfold increase in MIC compared with control” value ([2]; TK in the absence of mucin, 2/18 samples)?
A: 11%

Q: What about the “Regrowth samples at T30h with ≥fourfold increase in MIC compared with control” value ([2]; TK in the presence of mucin, 5/26 samples) of the same compound?
A: 19%

Q: What about the “Cases of regrowth associated with an increase in the MIC at T30h” value [2, 4] of the same compound?
A: 16%

Q: And the “PMB bound to mucin” value ([3]; PMB concentrations encountered in clinical practice, up to 10 mg/L, 1% mucin)?
A: approximately 95%

Q: What about the “PMB unbound fraction (fu), maximum” value ([3]; PMB total concentration of 200 mg/L (b7) or higher than 200 mg/L, CAMHB + 1% mucin, ultracentrifugation, LC-MS/MS) of the same compound?
A: 60%

Q: And the “PMB unbound fraction (fu)” value ([3]; PMB total concentrations up to 20 mg/L, CAMHB + 1% mucin, 1 h 35°C, ultracentrifugation ~290 000 g 5 h, LC-MS/MS, triplicate)?
A: 6%

Q: What about the “IC50, PMB total concentration needed to reach 50% of the maximum fu” value [3, 5] of the same compound?
A: 114.37 (196) mg/L

Q: And the “Imax, maximum PMB fu increase” value [3, 5]?
A: 0.56 (0.0009)

Q: And the “ε, Hill coefficient of fu vs total concentration” value [3, 5]?
A: 1.97 (0.252)

Q: What about the “IC50 of fu model” value [3, 6] of the same compound?
A: 104.01 µg/mL

Q: And the “Imax, maximum fu increase” value [3, 6]?
A: 0.56

Q: What about the “E0, minimum fu” value ([3]; equation 1 fit, autoclaved mucin data, CAMHB + 1% mucin, ultracentrifugation) of the same compound?
A: 0.067

Q: And the “IC50 of fu model” value [3, 7]?
A: 126.95 µg/mL

Q: And the “Imax, maximum fu increase” value [3, 7]?
A: 0.57

Q: And the “E0, minimum fu” value ([3]; equation 1 fit, non-autoclaved mucin data, CAMHB + 1% mucin, ultracentrifugation)?
A: 0.056

Q: What about the “E0, minimum PMB fu value” ([3]; sigmoidal Emax fit of fu vs PMB total concentration (equation 1), all data pooled, value (variance) in Table 1, CAMHB + 1% mucin, 1 h 35°C, ultracentrifugation ~290 000 g 5 h room temperature, LC-MS/MS, triplicate) of the same compound?
A: 0.061 (0.0004)

Q: And the Unbound conc. [3, 8]?
A: 0.03

Q: And the “fu (95% CI)” value [3, 8]?
A: 6.7 (0.1 - 13.2) %

Q: What about the Unbound conc. [3, 9] of the same compound?
A: 0.07

Q: What about the “fu (95% CI)” value [3, 9] of the same compound?
A: 6.7 (0.1 - 13.2) %

Q: What about the Unbound conc. [3, 10] of the same compound?
A: 0.13

Q: And the “fu (95% CI)” value [3, 10]?
A: 6.7 (0.1 - 13.2) %

Q: What about the Unbound conc. [3, 11] of the same compound?
A: 0.27

Q: What about the “fu (95% CI)” value [3, 11] of the same compound?
A: 6.7 (0.3 - 13.2) %

Q: What about the Unbound conc. [3, 12] of the same compound?
A: 0.55

Q: And the “fu (95% CI)” value [3, 12]?
A: 6.9 (0.7 - 13.0) %

Q: And the Unbound conc. [3, 13]?
A: 0.70

Q: What about the “fu (95% CI)” value [3, 13] of the same compound?
A: 7.0 (1.0 - 13.0) %

Q: What about the Unbound conc. [3, 14] of the same compound?
A: 7.96

Q: What about the “fu (95% CI)” value [3, 14] of the same compound?
A: 15.9 (7.7 – 24.2) %

Q: What about the Unbound conc. [3, 15] of the same compound?
A: 33.4

Q: What about the “fu (95% CI)” value [3, 15] of the same compound?
A: 33.4 (24.9 – 41.9) %

Q: And the Unbound conc. [3, 16]?
A: 304

Q: What about the “fu (95% CI)” value [3, 16] of the same compound?
A: 60.8 (55.0 - 66.6) %

Q: What about the Unbound conc. ([3]; total conc. 1000, CAMHB + 1% mucin) of the same compound?
A: 621
